Assay results reported in ChEMBL document CHEMBL3603736, “3-Substituted pyrazoles and 4-substituted triazoles as inhibitors of human 15-lipoxygenase-1” (Bioorg Med Chem Lett, 2015).
Converted amounts (≈) assume the structure as drawn. Values belong to the molecule of their own block, whether it stands above or below them. The source made the active and inactive calls. No cut-off for these calls is given here.

Columns and labels:
CYP2B6 = CYP2B6 (Homo sapiens, UniProt P20813); assay: Inhibition of human CYP2B6 at 10 uM; type: ADME
Cytochrome P450 2C8 [1] = target: T1, Cytochrome P450 2C8 (Homo sapiens, UniProt P10632); assay: Inhibition of human CYP2C8; type: ADME
Cytochrome P450 2C8 [2] = target: T1, Cytochrome P450 2C8; assay: Inhibition of human CYP2C8 at 10 uM; type: ADME
Cytochrome P450 2C9 = Cytochrome P450 2C9 (Homo sapiens, UniProt P11712); assay: Inhibition of human CYP2C9; type: ADME; conditions: read-out: IC50
Cytochrome P450 2C19 = Cytochrome P450 2C19 (Homo sapiens, UniProt P33261); assay: Inhibition of human CYP2C19; type: ADME; conditions: read-out: IC50
Cytochrome P450 2D6 = Cytochrome P450 2D6 (Homo sapiens, UniProt P10635); assay: Inhibition of human CYP2D6; type: ADME
CYP2E1 = CYP2E1 (Homo sapiens, UniProt P05181); assay: Inhibition of human CYP2E1 at 10 uM; type: ADME
Cytochrome P450 3A4 [3] = target: T2, Cytochrome P450 3A4 (Homo sapiens, UniProt P08684); assay: Inhibition of human CYP3A4; type: ADME
Escherichia coli = assay: Genotoxicity in Escherichia coli by SOS/umu test; type: toxicity, organism-based
[4] = Protein binding in plasma (unknown origin); type: ADME, cell-free; conditions: read-out: PPB (converted)
[5] = target: Voltage-gated inwardly rectifying potassium channel KCNH2 (Homo sapiens, UniProt Q12809); assay: Inhibition of human ERG
[6] = target: Polyunsaturated fatty acid lipoxygenase ALOX15B (Homo sapiens, UniProt O15296); assay: Inhibition of human 15-LOX-2 expressed in Sf9 cells assessed as reduction in conversion of arachidonic acid to 15-HETE pre-incubated 5 min before arachidonic acid substrate addition by HPLC-UV spectroscopy
[7] = target: Polyunsaturated fatty acid lipoxygenase ALOX12 (Homo sapiens) (UniProt P18054); assay: Inhibition of human platelet 12-LOX assessed as reduction in conversion of arachidonic acid to […] at 10 uM pre-incubated 5 min before arachidonic acid substrate addition by HPLC-UV spectroscopy
[8] = target: Polyunsaturated fatty acid 5-lipoxygenase (Homo sapiens) (UniProt P09917); assay: Inhibition of 5-LOX in calcium ionophore and arachidonic acid-stimulated purified human granulocytes assessed as reduction in LTB4 formation at 10 uM by HPLC-UV spectroscopy
[9] = target: T3, Prostaglandin G/H synthase 1 (Ovis aries) (UniProt P05979); assay: Inhibition of ovine COX1 assessed as reduction in PGH2-derived PGF2alpha production at 10 uM by enzyme immunoassay
T3 sequence (whole entry): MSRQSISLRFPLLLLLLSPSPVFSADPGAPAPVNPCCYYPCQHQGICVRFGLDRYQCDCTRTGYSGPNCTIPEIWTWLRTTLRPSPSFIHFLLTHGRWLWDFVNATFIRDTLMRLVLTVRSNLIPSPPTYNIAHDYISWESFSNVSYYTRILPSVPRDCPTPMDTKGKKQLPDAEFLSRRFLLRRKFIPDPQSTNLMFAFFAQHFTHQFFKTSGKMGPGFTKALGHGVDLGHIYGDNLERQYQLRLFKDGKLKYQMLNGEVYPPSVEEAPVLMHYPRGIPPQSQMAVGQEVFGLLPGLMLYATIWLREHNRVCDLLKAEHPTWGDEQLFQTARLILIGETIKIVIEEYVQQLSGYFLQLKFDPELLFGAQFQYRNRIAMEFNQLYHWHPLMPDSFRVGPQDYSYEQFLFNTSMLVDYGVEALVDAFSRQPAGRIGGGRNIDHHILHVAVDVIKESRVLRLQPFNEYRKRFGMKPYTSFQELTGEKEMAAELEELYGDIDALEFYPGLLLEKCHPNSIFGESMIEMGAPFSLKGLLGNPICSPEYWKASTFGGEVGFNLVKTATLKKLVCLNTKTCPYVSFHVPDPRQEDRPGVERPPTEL

[10] = target: T4, Prostaglandin G/H synthase 2 (Homo sapiens) (UniProt P35354); assay: Inhibition of human recombinant COX2 assessed as reduction in PGH2-derived PGF2alpha production at 10 uM by enzyme immunoassay
T4 sequence (whole entry): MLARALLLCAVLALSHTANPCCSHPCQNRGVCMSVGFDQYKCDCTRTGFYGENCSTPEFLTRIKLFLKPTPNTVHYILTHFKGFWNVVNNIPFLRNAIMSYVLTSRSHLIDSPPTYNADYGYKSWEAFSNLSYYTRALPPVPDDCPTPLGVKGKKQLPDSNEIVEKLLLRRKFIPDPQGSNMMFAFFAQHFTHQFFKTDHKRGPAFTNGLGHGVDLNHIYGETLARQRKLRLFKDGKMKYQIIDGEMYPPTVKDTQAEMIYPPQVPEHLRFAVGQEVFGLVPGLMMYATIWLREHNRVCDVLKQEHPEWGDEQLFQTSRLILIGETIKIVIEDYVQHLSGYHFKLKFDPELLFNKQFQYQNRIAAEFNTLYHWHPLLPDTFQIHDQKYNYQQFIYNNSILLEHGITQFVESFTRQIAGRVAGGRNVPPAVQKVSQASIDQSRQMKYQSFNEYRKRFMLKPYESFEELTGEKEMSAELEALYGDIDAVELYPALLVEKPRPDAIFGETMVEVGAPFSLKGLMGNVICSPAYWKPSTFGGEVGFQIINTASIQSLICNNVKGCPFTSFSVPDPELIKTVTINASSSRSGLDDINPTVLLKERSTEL

[11] = target: Arachidonate 12-lipoxygenase (Rattus norvegicus) (UniProt Q02759); assay: (§1) Inhibition of rat 15-LOX-1 expressed in Sf9 cells assessed as reduction in conversion of arachidonic acid to 15-HETE pre-incubated 5 min before arachidonic acid substrate addition by HPLC-UV spectroscopy
[12] = target: Arachidonate 12-lipoxygenase (Rattus norvegicus, UniProt Q02759); assay: as §1
[13] = Inhibition of dog 15-LOX-1 expressed in Sf9 cells assessed as reduction in conversion of arachidonic acid to 15-HETE pre-incubated 5 min before arachidonic acid substrate addition by HPLC-UV spectroscopy; design: species or system Canis lupus familiaris
[14] = target: Arachidonate 12-lipoxygenase (Sus scrofa, UniProt P16469); assay: Inhibition of pig 15-LOX-1 expressed in Sf9 cells assessed as reduction in conversion of arachidonic acid to 15-HETE pre-incubated 5 min before arachidonic acid substrate addition by HPLC-UV spectroscopy
[15] = Aqueous solubility in pH 2.0 buffer; type: physicochemical
[16] = Aqueous solubility in pH 7.4 buffer; type: physicochemical
[17] = Aqueous solubility in pH 10 buffer; type: physicochemical
[18] = Half life in human microsomes; type: ADME, Microsome
[19] = Intrinsic clearance in human microsomes; type: ADME, Microsome
Caco-2 = assay: Permeability in human Caco2 cells; type: ADME, cell-based
Cytochrome P450 1A2 = Cytochrome P450 1A2 (Homo sapiens, UniProt P05177); assay: Inhibition of human CYP1A2; type: ADME
[20] = target: T5, Polyunsaturated fatty acid lipoxygenase ALOX15 (Homo sapiens, UniProt P16050)
T5 sequence (P16050 whole entry): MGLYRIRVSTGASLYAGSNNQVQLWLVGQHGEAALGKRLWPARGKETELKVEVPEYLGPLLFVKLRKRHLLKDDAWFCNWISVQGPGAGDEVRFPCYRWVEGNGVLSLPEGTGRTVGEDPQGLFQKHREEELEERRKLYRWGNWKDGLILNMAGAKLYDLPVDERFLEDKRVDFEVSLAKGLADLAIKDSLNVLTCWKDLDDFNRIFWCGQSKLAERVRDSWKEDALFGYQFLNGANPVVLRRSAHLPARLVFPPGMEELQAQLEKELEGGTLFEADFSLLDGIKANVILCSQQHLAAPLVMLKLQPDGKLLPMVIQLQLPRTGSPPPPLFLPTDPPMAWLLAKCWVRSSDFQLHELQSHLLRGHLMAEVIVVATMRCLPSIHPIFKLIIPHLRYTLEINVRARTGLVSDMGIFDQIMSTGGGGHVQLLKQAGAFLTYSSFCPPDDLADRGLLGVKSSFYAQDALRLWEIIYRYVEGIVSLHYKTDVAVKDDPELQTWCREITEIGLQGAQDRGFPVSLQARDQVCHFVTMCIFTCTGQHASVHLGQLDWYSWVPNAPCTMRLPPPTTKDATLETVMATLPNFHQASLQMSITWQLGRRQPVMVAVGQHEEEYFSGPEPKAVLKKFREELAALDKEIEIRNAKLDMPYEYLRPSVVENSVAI
Description: (§2) Inhibition of human 15-LOX-1 expressed in Sf9 cells assessed as reduction in conversion of arachidonic acid to 15-HETE pre-incubated 5 min before arachidonic acid substrate addition by HPLC-UV spectroscopy

[21] = target: T5, Polyunsaturated fatty acid lipoxygenase ALOX15; remark: listed apart in the source
Description: (§3) Inhibition of 15-LOX-1 in human L1236 cells assessed as reduction in conversion of arachidonic acid to 15-HETE pre-incubated 5 min before arachidonic acid substrate addition by HPLC-UV spectroscopy

CYP2C9 = CYP2C9 (Homo sapiens, UniProt P11712); assay: Inhibition of human CYP2C9 at 10 uM; type: ADME
CYP2C19 = CYP2C19 (Homo sapiens, UniProt P33261); assay: Inhibition of human CYP2C19 at 10 uM; type: ADME
CYP2D6 = CYP2D6 (Homo sapiens, UniProt P10635); assay: Inhibition of human CYP2D6 at 10 uM; type: ADME
Cytochrome P450 3A4 [22] = target: T2, Cytochrome P450 3A4; assay: Inhibition of human CYP3A4 at 10 uM; type: ADME
CYP1A2 = CYP1A2 (Homo sapiens, UniProt P05177); assay: Inhibition of human CYP1A2 at 10 uM; type: ADME
[23] = target: T5, Polyunsaturated fatty acid lipoxygenase ALOX15; conditions: l1236
Description: as §3

[24] = target: T5, Polyunsaturated fatty acid lipoxygenase ALOX15; conditions: sf9
Description: as §2

T2 sequence (P08684 whole entry): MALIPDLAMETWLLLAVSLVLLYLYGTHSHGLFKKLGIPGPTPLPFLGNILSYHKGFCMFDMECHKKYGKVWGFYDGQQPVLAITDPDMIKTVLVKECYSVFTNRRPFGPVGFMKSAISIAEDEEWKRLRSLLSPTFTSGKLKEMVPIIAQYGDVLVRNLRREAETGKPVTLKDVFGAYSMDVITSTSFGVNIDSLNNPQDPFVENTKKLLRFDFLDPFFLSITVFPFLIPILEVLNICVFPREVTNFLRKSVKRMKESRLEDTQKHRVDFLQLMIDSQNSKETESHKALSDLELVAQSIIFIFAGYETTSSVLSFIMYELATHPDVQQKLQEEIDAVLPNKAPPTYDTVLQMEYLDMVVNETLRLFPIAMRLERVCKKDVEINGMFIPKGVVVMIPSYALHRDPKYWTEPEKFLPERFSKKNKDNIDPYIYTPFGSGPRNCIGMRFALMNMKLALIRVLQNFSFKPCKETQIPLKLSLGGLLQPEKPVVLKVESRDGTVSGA
Sequence of Polyunsaturated fatty acid 5-lipoxygenase (Homo sapiens) (P09917 whole entry): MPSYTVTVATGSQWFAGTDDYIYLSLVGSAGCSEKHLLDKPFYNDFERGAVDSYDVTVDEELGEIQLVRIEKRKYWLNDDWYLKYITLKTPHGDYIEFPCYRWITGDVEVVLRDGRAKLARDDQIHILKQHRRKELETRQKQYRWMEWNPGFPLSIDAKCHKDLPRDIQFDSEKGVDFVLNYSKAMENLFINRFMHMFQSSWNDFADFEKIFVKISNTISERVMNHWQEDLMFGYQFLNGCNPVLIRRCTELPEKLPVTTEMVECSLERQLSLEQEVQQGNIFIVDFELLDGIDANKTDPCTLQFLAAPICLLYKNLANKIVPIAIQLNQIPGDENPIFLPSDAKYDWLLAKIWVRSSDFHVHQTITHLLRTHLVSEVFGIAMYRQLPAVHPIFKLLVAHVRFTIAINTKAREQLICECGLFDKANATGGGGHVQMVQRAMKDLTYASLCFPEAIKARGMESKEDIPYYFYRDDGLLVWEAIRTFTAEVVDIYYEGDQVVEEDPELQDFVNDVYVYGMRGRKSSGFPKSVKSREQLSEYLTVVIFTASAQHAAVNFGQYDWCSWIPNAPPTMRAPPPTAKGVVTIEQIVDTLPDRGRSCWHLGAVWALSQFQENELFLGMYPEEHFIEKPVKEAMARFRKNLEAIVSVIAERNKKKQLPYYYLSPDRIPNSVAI
T1 sequence (P10632 whole entry): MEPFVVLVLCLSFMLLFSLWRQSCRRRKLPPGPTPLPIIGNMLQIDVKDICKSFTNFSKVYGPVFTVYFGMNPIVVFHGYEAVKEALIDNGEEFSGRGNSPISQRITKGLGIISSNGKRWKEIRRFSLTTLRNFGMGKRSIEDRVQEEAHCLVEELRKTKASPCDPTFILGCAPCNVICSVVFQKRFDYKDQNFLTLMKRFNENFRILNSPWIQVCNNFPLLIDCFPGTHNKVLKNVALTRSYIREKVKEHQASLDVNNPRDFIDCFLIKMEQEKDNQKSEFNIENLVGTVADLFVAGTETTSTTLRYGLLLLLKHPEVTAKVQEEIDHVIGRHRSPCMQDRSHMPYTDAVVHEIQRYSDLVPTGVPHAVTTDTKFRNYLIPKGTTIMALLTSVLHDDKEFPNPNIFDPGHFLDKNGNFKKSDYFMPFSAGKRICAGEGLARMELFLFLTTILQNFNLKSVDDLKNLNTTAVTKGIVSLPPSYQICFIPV
Sequence of Voltage-gated inwardly rectifying potassium channel KCNH2 (Q12809 whole entry): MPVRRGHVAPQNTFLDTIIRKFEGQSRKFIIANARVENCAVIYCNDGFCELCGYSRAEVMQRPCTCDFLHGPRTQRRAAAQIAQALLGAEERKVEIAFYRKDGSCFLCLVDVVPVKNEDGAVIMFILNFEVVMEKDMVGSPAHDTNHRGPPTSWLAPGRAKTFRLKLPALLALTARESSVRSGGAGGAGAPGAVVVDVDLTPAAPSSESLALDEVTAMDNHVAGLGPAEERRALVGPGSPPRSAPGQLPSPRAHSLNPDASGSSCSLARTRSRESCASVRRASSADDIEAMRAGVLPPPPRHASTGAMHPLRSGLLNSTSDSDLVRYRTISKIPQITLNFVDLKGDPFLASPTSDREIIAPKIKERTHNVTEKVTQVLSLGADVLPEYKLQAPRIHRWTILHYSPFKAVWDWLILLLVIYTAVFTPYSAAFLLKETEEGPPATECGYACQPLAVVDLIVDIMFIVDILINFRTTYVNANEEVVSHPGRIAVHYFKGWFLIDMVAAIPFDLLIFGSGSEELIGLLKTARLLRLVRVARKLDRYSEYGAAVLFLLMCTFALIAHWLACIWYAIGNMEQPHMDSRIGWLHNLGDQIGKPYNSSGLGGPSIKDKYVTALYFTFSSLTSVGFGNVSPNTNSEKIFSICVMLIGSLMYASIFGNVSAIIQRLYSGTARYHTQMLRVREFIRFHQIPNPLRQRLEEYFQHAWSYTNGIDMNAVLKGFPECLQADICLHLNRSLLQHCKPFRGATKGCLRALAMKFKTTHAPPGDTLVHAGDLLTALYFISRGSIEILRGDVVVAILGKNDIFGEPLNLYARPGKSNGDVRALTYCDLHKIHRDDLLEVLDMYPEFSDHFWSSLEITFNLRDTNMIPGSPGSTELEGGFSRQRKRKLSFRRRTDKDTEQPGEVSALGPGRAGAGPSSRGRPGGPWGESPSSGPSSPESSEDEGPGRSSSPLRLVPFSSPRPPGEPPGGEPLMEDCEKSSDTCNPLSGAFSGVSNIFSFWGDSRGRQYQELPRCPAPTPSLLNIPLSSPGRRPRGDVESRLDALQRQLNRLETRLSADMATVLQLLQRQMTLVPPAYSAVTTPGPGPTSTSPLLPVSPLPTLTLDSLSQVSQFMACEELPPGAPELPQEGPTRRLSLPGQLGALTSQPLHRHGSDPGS
Sequence of Polyunsaturated fatty acid lipoxygenase ALOX12 (Homo sapiens) (P18054 whole entry): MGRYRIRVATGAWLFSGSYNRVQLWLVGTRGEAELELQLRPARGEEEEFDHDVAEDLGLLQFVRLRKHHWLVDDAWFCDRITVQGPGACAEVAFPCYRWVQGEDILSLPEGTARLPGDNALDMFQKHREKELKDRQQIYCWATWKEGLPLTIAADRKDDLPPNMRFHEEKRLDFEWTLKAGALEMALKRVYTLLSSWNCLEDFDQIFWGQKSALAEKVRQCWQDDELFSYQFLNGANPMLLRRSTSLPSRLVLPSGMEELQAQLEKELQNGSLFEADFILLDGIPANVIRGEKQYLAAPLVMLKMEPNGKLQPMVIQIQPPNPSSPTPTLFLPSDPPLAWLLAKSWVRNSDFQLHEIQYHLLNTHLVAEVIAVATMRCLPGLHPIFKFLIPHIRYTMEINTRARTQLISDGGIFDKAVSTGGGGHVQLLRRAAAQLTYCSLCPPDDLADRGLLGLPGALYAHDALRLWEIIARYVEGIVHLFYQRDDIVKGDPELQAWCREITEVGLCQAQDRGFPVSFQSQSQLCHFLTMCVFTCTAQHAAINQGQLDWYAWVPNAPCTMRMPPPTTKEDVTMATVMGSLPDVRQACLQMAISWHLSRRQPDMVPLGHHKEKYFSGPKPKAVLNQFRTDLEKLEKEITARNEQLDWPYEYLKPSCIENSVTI
Sequence of CYP2B6 (P20813 whole entry): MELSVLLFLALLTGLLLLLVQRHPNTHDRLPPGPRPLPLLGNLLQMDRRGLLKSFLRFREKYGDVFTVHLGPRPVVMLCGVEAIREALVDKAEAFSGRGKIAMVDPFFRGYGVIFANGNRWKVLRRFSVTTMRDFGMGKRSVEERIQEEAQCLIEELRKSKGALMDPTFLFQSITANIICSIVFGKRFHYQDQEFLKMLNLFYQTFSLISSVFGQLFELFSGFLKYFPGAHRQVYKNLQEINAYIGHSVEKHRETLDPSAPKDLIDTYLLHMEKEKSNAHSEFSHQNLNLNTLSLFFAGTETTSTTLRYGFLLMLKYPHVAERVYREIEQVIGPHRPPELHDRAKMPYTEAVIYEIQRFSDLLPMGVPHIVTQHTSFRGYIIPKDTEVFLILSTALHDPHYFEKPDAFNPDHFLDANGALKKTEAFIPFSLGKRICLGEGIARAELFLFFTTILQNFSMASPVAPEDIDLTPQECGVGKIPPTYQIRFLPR
Sequence of Polyunsaturated fatty acid lipoxygenase ALOX15B (O15296 whole entry): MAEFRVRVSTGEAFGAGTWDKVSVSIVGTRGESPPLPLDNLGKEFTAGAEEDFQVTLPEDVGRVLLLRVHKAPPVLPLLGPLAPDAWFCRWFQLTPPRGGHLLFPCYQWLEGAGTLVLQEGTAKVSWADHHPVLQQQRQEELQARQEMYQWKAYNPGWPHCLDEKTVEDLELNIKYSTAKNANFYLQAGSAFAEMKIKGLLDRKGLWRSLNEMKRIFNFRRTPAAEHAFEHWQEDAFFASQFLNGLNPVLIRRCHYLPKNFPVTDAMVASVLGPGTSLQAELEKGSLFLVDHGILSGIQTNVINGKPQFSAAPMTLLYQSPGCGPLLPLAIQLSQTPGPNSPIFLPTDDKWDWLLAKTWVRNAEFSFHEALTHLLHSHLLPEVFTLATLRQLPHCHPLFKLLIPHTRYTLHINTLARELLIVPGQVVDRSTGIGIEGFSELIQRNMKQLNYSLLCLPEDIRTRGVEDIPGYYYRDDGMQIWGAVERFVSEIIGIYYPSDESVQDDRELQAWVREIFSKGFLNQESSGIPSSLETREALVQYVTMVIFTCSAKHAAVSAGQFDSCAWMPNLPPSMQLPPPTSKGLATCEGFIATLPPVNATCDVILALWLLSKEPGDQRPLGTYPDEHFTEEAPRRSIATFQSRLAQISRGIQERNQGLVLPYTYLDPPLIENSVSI

Compound: O=C(Nc1ccc(Cl)cc1Cl)c1cn[nH]n1
inhibition at 10 µM (CYP2B6): 93% | IC50 (Cytochrome P450 2C8 [1]): Not Active | inhibition (INH) (Cytochrome P450 2C8 [2]): Not Active | IC50 (Cytochrome P450 2C9): 0.5 µM | IC50 (Cytochrome P450 2C19): 1.4 µM | IC50 (Cytochrome P450 2D6): > 100 µM | inhibition at 10 µM (CYP2E1): 10% | IC50 (Cytochrome P450 3A4 [3]; read-out: IC50): 58.1 µM | Activity (Escherichia coli): Non-toxic | fraction unbound [4]: < 0.01 | inhibition (INH) [5]: Not Active | IC50 [6]: Not Active | inhibition [7]: 42% | inhibition [8]: < 50% | inhibition [9]: 4% | inhibition [10]: 10% | Imax [11]: 79% | IC50 [12]: 24 µM | IC50 [13]: 2.4 µM | IC50 [14]: 0.078 µM | solubility [15]: 0.0243 mg/mL (≈ 94.5 µM) | solubility [16]: 0.0836 mg/mL (≈ 325 µM) | solubility [17]: > 0.287 mg/mL | half-life [18]: > 100 min | microsomal CLint [19]: < 1 µL/min/mg | permeability (Caco-2): permeable | IC50 (Cytochrome P450 1A2): 21.6 µM

Compound: Nc1cc(C(=O)Nc2ccc(F)cc2Cl)n[nH]1
IC50 [20]: 5.98 µM | IC50 [21]: 0.334 µM

Compound: O=C(Nc1cnc2ccccc2c1)c1cn[nH]n1
IC50 [21]: 1.02 µM

Compound: O=C(Nc1ccc(F)cn1)c1cc[nH]n1
inhibition at 10 µM (CYP2C9): 26% | inhibition at 10 µM (CYP2C19): 6% | inhibition at 10 µM (CYP2D6): 9% | IC50 (Cytochrome P450 3A4 [3]): Not Active | inhibition (INH) (Cytochrome P450 3A4 [22]): Not Active | Activity (Escherichia coli): Non-toxic | fraction unbound [4]: 0.071 | inhibition (INH) [5]: Not Active | inhibition [7]: < 50% | inhibition [8]: < 50% | inhibition [9]: inactive | inhibition [10]: inactive | solubility [16]: 0.0034 mg/mL (≈ 16.5 µM) | half-life [18]: 36 min | microsomal CLint [19]: 17 µL/min/mg | permeability (Caco-2): permeable | inhibition at 10 µM (CYP1A2): 45%

Compound: O=C(Nc1ccc(F)cn1)c1cn[nH]n1
IC50 [20]: 3.97 µM | IC50 [21]: 3.11 µM

Compound: c1ccc2oc(-c3cc[nH]n3)nc2c1
IC50 [20]: 3.27 µM | IC50 [21]: 0.638 µM

The remaining lines, values ahead:

IC50 [20]: 6.98 µM | IC50 [21]: 0.392 µM
Compound: O=C(Nc1ccccc1Cl)c1cn[nH]n1

IC50 [23]: Not Active
Compound: CS(=O)(=O)Nc1cc(C(=O)Nc2ccc(F)cc2Cl)n[nH]1

IC50 [20]: 1.21 µM | IC50 [21]: 3.41 µM
Compound: O=C(Nc1ccccn1)c1cc[nH]n1

IC50 [24]: Not Active | IC50 [23]: Not Active
Compound: CN(C(=O)c1cc[nH]n1)c1ccccc1Cl

IC50 [20]: 0.672 µM | IC50 [21]: 1.33 µM
Compound: Cc1c(C(=O)Nc2ccc(F)cc2Cl)n[nH]c1[Si](C)(C)C
